Source: patent publication US9340590B2 (priority 2011, dated 2016)
pIC50: −log10 of the molar value. Positions of bridges follow the written chain, without caps; N, C: chain ends. Non-standard residues stand in square brackets, D forms with d. Residues, ends and D or L forms follow the SMILES beside them. Trp(1-Me) = Cn1cc(C[C@H](N)C(=O)O)c2ccccc21; 1Nal = N[C@@H](Cc1cccc2ccccc12)C(=O)O

Tests used:
Test in all cases: cell-based
hNav1.7 = hNav1.7 (Homo sapiens, UniProt Q15858); settings: Nav1.7 Use IC50
hNav1.5 = hNav1.5 (Homo sapiens, UniProt Q14524)
hNav1.3 = hNav1.3 (Homo sapiens, UniProt Q9NY46); assay type: cell-based; settings: Nav1.3 Use IC50
Sequence of hNav1.3 (Q9NY46 whole entry, looked up): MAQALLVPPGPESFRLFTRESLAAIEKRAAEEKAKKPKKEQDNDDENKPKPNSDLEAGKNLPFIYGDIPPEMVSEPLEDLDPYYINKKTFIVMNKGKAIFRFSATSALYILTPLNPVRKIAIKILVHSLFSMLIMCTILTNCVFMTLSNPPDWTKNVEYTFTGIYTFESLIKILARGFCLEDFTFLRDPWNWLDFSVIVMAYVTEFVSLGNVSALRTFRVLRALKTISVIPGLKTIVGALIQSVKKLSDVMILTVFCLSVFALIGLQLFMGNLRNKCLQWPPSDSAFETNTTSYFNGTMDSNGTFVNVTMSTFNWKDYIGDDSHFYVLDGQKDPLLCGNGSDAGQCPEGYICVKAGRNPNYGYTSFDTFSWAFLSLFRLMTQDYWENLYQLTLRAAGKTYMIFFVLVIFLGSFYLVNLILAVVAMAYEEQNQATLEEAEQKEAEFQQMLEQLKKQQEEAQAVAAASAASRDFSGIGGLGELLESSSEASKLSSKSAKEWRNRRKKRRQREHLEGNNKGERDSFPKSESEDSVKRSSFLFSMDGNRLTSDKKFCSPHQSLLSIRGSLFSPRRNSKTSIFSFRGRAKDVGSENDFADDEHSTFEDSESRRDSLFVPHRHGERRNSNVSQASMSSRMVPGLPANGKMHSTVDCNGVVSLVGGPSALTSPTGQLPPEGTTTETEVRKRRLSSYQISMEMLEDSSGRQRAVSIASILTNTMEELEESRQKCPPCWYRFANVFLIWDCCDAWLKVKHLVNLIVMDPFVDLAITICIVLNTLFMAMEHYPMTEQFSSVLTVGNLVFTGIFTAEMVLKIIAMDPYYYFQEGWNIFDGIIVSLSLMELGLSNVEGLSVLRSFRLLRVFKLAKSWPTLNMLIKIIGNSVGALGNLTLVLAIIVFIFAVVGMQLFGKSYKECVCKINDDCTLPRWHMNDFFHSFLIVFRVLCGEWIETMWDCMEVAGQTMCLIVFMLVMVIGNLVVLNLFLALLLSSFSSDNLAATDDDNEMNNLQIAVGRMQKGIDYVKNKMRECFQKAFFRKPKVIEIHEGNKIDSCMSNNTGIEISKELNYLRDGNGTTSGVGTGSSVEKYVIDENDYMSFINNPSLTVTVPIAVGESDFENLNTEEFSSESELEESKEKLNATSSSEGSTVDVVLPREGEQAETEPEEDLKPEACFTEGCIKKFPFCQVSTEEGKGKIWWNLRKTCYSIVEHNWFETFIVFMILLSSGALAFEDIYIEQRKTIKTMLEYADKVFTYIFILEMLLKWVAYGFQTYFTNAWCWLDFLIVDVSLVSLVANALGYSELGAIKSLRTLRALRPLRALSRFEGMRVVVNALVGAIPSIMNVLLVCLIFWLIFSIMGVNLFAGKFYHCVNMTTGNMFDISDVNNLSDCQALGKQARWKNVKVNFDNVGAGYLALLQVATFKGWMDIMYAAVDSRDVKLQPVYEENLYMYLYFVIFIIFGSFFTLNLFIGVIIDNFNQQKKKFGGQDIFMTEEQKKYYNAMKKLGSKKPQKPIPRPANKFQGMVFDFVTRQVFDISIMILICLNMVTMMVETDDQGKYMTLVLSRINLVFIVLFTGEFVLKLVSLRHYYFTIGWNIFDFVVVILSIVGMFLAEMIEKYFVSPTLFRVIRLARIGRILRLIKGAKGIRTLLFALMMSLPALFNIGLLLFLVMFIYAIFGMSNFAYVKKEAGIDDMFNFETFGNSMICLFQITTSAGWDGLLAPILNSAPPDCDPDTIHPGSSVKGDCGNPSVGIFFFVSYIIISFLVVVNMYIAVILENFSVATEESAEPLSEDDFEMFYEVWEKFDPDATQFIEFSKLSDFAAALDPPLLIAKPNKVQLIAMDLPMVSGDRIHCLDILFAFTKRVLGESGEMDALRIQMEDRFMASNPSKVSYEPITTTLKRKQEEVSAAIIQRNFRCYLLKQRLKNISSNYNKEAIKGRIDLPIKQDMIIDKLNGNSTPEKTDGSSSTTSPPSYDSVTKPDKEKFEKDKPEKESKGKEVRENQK

Sequence of hNav1.7 (Q15858 whole entry, looked up): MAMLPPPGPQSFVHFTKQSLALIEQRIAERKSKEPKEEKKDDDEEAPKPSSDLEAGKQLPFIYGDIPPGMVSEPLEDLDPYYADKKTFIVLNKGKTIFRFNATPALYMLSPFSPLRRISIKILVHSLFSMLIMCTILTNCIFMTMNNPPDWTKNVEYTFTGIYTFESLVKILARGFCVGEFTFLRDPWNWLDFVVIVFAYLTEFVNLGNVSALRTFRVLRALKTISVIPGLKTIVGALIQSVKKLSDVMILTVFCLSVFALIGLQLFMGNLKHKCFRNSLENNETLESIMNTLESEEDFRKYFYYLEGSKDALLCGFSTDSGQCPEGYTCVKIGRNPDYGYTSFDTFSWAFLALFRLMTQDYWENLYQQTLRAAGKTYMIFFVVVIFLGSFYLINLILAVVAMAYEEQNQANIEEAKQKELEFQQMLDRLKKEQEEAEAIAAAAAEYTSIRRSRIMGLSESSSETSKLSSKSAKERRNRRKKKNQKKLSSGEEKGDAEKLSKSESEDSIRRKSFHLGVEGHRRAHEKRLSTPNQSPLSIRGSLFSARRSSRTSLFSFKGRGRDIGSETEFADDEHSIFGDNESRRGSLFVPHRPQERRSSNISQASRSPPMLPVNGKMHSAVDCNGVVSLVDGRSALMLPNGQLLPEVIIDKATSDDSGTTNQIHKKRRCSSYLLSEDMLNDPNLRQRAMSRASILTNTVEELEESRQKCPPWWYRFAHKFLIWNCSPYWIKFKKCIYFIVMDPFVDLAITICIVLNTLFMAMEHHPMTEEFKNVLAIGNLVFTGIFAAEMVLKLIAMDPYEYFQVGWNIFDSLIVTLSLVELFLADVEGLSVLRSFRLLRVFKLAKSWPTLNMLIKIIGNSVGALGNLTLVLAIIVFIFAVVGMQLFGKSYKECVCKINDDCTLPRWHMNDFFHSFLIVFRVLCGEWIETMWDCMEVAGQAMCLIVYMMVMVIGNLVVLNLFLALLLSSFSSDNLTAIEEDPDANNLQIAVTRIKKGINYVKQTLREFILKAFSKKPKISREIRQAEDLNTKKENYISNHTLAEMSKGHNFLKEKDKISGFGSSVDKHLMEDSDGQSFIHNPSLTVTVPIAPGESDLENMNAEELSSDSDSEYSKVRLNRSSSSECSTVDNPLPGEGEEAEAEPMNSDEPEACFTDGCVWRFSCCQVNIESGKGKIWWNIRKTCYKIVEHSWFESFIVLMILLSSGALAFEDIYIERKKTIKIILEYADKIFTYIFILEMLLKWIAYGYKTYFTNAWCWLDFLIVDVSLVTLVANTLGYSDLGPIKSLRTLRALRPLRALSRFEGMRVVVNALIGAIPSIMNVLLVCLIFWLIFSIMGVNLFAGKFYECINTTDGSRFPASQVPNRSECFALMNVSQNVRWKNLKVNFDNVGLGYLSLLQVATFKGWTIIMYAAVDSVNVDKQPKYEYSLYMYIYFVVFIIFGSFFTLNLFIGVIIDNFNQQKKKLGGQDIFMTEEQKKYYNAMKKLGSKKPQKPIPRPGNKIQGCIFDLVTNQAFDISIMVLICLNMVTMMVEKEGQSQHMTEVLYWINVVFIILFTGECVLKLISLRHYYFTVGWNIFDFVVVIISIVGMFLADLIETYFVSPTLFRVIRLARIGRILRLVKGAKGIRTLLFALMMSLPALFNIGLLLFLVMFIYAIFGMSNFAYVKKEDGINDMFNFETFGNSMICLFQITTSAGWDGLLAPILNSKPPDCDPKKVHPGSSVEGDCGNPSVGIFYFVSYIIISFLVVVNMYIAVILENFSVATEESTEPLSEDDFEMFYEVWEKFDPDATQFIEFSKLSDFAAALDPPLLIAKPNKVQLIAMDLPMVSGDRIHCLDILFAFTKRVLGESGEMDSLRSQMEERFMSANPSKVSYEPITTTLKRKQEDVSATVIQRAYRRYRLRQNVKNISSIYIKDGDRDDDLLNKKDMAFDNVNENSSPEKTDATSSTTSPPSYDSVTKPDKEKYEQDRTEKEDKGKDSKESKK

CC[C@H](C)[C@@H]1NC(=O)[C@@H]2CSSC[C@@H]3NC(=O)[C@H](C(C)C)NC(=O)[C@H](CC(C)C)NC(=O)[C@H](CC(N)=O)NC(=O)[C@@H]4CCCN4C(=O)[C@H](CCCNC(=N)N)NC(=O)[C@H](CSSC[C@H](NC(=O)[C@@H](N)CC(=O)O)C(=O)N[C@@H](CC(C)C)C(=O)NCC(=O)N[C@@H](Cc4ccccc4)C(=O)N[C@@H](CCSC)C(=O)N[C@@H](CCCNC(=N)N)C(=O)N[C@@H](CCCCN)C(=O)N2)NC(=O)[C@H](CSSC[C@@H](C(=O)N[C@@H](CCCCN)C(=O)N[C@@H](Cc2ccc(O)cc2)C(=O)N[C@H](C(=O)N[C@@H](Cc2ccccc2)C(=O)N[C@@H](Cc2c[nH]c4ccccc24)C(N)=O)C(C)C)NC(=O)[C@H](Cc2c[nH]c4ccccc24)NC(=O)[C@H](CCCCN)NC(=O)[C@H](Cc2c[nH]cn2)NC(=O)[C@H]([C@@H](C)O)NC(=O)[C@H](CCCNC(=N)N)NC(=O)[C@H](CO)NC3=O)NC(=O)[C@H](CCCCN)NC(=O)[C@H](CC(=O)O)NC(=O)[C@H](CC(N)=O)NC(=O)[C@H](CC(=O)O)NC(=O)[C@@H]2CCCN2C1=O [GpTx-1(1-34)-Trp] was tested, and the pIC50 (hNav1.7) was 8.05, the pIC50 (hNav1.5) was 5.58 and the pIC50 (hNav1.3) was 7.82.
Compound CC[C@H](C)[C@@H]1NC(=O)[C@@H]2CSSC[C@@H]3NC(=O)[C@H](C(C)C)NC(=O)[C@H](CC(C)C)NC(=O)[C@H](CC(N)=O)NC(=O)[C@@H]4CCCN4C(=O)[C@H](CCCNC(=N)N)NC(=O)[C@H](CSSC[C@H](NC(=O)[C@@H](N)CC(=O)O)C(=O)N[C@@H](CC(C)C)C(=O)NCC(=O)N[C@@H](Cc4ccccc4)C(=O)N[C@@H](CCSC)C(=O)N[C@@H](CCCNC(=N)N)C(=O)N[C@@H](CCCCN)C(=O)N2)NC(=O)[C@H](CSSC[C@@H](C(=O)N[C@@H](CCCCN)C(=O)N[C@@H](Cc2ccc(O)cc2)C(=O)N[C@H](C(=O)N[C@@H](Cc2cccc4ccccc24)C(N)=O)C(C)C)NC(=O)[C@H](Cc2c[nH]c4ccccc24)NC(=O)[C@H](CCCCN)NC(=O)[C@H](Cc2cnc[nH]2)NC(=O)[C@H]([C@@H](C)O)NC(=O)[C@H](CCCNC(=N)N)NC(=O)[C@H](CO)NC3=O)NC(=O)[C@H](CCCCN)NC(=O)[C@H](CC(=O)O)NC(=O)[C@H](CC(N)=O)NC(=O)[C@H](CC(=O)O)NC(=O)[C@@H]2CCCN2C1=O [[1-Nal34]GpTx-1(1-34)] (H-DCLGFMRKCIPDNDKCCRPNLVCSRTHKWCKYV[1Nal]-NH2; disulfide 2-17, 9-23, 16-30) has a pIC50 (hNav1.7) of 8.40, a pIC50 (hNav1.5) of 5.73 and a pIC50 (hNav1.3) of 8.15.
With CC[C@H](C)[C@@H]1NC(=O)[C@@H]2CSSC[C@@H]3NC(=O)[C@H](C(C)C)NC(=O)[C@H](CC(C)C)NC(=O)[C@H](CC(N)=O)NC(=O)[C@@H]4CCCN4C(=O)[C@H](CCCNC(=N)N)NC(=O)[C@H](CSSC[C@H](NC(=O)[C@@H](N)CC(=O)O)C(=O)N[C@@H](CC(C)C)C(=O)NCC(=O)N[C@@H](Cc4ccccc4)C(=O)N[C@@H](CCSC)C(=O)N[C@@H](CCCNC(=N)N)C(=O)N[C@@H](CCCCN)C(=O)N2)NC(=O)[C@H](CSSC[C@@H](C(=O)N[C@@H](CCCCN)C(=O)N[C@@H](Cc2cn(C)c4ccccc24)C(=O)N[C@H](C(=O)N[C@@H](Cc2ccccc2)C(N)=O)C(C)C)NC(=O)[C@H](Cc2c[nH]c4ccccc24)NC(=O)[C@H](CCCCN)NC(=O)[C@H](Cc2c[nH]cn2)NC(=O)[C@H]([C@@H](C)O)NC(=O)[C@H](CCCNC(=N)N)NC(=O)[C@H](CO)NC3=O)NC(=O)[C@H](CCCCN)NC(=O)[C@H](CC(=O)O)NC(=O)[C@H](CC(N)=O)NC(=O)[C@H](CC(=O)O)NC(=O)[C@@H]2CCCN2C1=O [[1′NMeW32]GpTx-1(1-34)] (H-DCLGFMRKCIPDNDKCCRPNLVCSRTHKWCK[Trp(1-Me)]VF-NH2; disulfide 2-17, 9-23, 16-30) the pIC50 (hNav1.7) was 8.22, the pIC50 (hNav1.5) was 5.16 and the pIC50 (hNav1.3) was 7.74.
CC[C@H](C)[C@@H]1NC(=O)[C@@H]2CSSC[C@@H]3NC(=O)[C@H](C(C)C)NC(=O)[C@H](CC(C)C)NC(=O)[C@H](CC(N)=O)NC(=O)[C@@H]4CCCN4C(=O)[C@H](CCCNC(=N)N)NC(=O)[C@H](CSSC[C@H](NC(=O)[C@@H](N)CC(=O)O)C(=O)N[C@@H](CC(C)C)C(=O)NCC(=O)N[C@@H](Cc4ccccc4)C(=O)N[C@@H](CCSC)C(=O)N[C@@H](CCCNC(=N)N)C(=O)N[C@@H](CCCCN)C(=O)N2)NC(=O)[C@H](CSSC[C@@H](C(=O)N[C@@H](CCCCN)C(=O)N[C@@H](Cc2ccc(O)cc2)C(=O)N[C@@H](Cc2cn(C)c4ccccc24)C(=O)N[C@@H](Cc2ccccc2)C(N)=O)NC(=O)[C@H](Cc2c[nH]c4ccccc24)NC(=O)[C@H](CCCCN)NC(=O)[C@H](Cc2c[nH]cn2)NC(=O)[C@H]([C@@H](C)O)NC(=O)[C@H](CCCNC(=N)N)NC(=O)[C@H](CO)NC3=O)NC(=O)[C@H](CCCCN)NC(=O)[C@H](CC(=O)O)NC(=O)[C@H](CC(N)=O)NC(=O)[C@H](CC(=O)O)NC(=O)[C@@H]2CCCN2C1=O [[1′NMeW33]GpTx-1(1-34)] (H-DCLGFMRKCIPDNDKCCRPNLVCSRTHKWCKY[Trp(1-Me)]F-NH2; disulfide 2-17, 9-23, 16-30) was tested, and the pIC50 (hNav1.7) was 7.27, the pIC50 (hNav1.5) was 5.02 and the pIC50 (hNav1.3) was 7.43.
CC[C@H](C)[C@@H]1NC(=O)[C@@H]2CSSC[C@@H]3NC(=O)[C@H](C(C)C)NC(=O)[C@H](CC(C)C)NC(=O)[C@H](CC(N)=O)NC(=O)[C@@H]4CCCN4C(=O)[C@H](CCCNC(=N)N)NC(=O)[C@H](CSSC[C@H](NC(=O)[C@@H](N)CC(=O)O)C(=O)N[C@@H](CC(C)C)C(=O)NCC(=O)N[C@@H](C)C(=O)N[C@@H](Cc4cccc5ccccc45)C(=O)N[C@@H](CCCNC(=N)N)C(=O)N[C@@H](CCCCN)C(=O)N2)NC(=O)[C@H](CSSC[C@@H](C(=O)N[C@@H](CCCCN)C(=O)N[C@@H](Cc2ccc(O)cc2)C(=O)N[C@H](C(=O)N[C@@H](Cc2ccccc2)C(N)=O)C(C)C)NC(=O)[C@H](Cc2c[nH]c4ccccc24)NC(=O)[C@H](CCCCN)NC(=O)[C@H](Cc2cnc[nH]2)NC(=O)[C@H]([C@@H](C)O)NC(=O)[C@H](CCCNC(=N)N)NC(=O)[C@H](CO)NC3=O)NC(=O)[C@H](CCCCN)NC(=O)[C@H](CC(=O)O)NC(=O)[C@H](CC(N)=O)NC(=O)[C@H](CC(=O)O)NC(=O)[C@@H]2CCCN2C1=O [[Ala5;1-Nal6]GpTx-1(1-34)] was tested, and the pIC50 (hNav1.7) was 8.70, the pIC50 (hNav1.5) was 5.42 and the pIC50 (hNav1.3) was 8.10.
Compound CC[C@H](C)[C@@H]1NC(=O)[C@@H]2CSSC[C@@H]3NC(=O)[C@H](C(C)C)NC(=O)[C@H](CC(C)C)NC(=O)[C@H](CC(N)=O)NC(=O)[C@@H]4CCCN4C(=O)[C@H](CCCNC(=N)N)NC(=O)[C@H](CSSC[C@H](NC(=O)[C@@H](N)CC(=O)O)C(=O)N[C@@H](CC(C)C)C(=O)NCC(=O)N[C@@H](C)C(=O)N[C@@H](CCSC)C(=O)N[C@@H](CCCNC(=N)N)C(=O)N[C@@H](CCCCN)C(=O)N2)NC(=O)[C@H](CSSC[C@@H](C(=O)N[C@@H](CCCCN)C(=O)N[C@@H](Cc2cccc4ccccc24)C(=O)N[C@H](C(=O)N[C@@H](Cc2ccccc2)C(N)=O)C(C)C)NC(=O)[C@H](Cc2c[nH]c4ccccc24)NC(=O)[C@H](CCCCN)NC(=O)[C@H](Cc2c[nH]cn2)NC(=O)[C@H]([C@@H](C)O)NC(=O)[C@H](CCCNC(=N)N)NC(=O)[C@H](CO)NC3=O)NC(=O)[C@H](CCCCN)NC(=O)[C@H](CC(=O)O)NC(=O)[C@H](CC(N)=O)NC(=O)[C@H](CC(=O)O)NC(=O)[C@@H]2CCCN2C1=O [[Ala5;1-Nal32]GpTx-1(1-34)] (H-DCLGAMRKCIPDNDKCCRPNLVCSRTHKWCK[1Nal]VF-NH2; disulfide 2-17, 9-23, 16-30) has a pIC50 (hNav1.7) of 7.55, a pIC50 (hNav1.5) of under 5.00 and a pIC50 (hNav1.3) of 6.91.
CC[C@H](C)[C@@H]1NC(=O)[C@@H]2CSSC[C@@H]3NC(=O)[C@H](C(C)C)NC(=O)[C@H](CC(C)C)NC(=O)[C@H](CC(N)=O)NC(=O)[C@@H]4CCCN4C(=O)[C@H](CCCNC(=N)N)NC(=O)[C@H](CSSC[C@H](NC(=O)[C@@H](N)CC(=O)O)C(=O)N[C@@H](CC(C)C)C(=O)NCC(=O)N[C@@H](C)C(=O)N[C@@H](CCSC)C(=O)N[C@@H](CCCNC(=N)N)C(=O)N[C@@H](CCCCN)C(=O)N2)NC(=O)[C@H](CSSC[C@@H](C(=O)N[C@@H](CCCCN)C(=O)N[C@@H](Cc2ccc(O)cc2)C(=O)N[C@@H](Cc2cccc4ccccc24)C(=O)N[C@@H](Cc2ccccc2)C(N)=O)NC(=O)[C@H](Cc2c[nH]c4ccccc24)NC(=O)[C@H](CCCCN)NC(=O)[C@H](Cc2c[nH]cn2)NC(=O)[C@H]([C@@H](C)O)NC(=O)[C@H](CCCNC(=N)N)NC(=O)[C@H](CO)NC3=O)NC(=O)[C@H](CCCCN)NC(=O)[C@H](CC(=O)O)NC(=O)[C@H](CC(N)=O)NC(=O)[C@H](CC(=O)O)NC(=O)[C@@H]2CCCN2C1=O [[Ala5;1-Nal33]GpTx-1(1-34)] (H-DCLGAMRKCIPDNDKCCRPNLVCSRTHKWCKY[1Nal]F-NH2; disulfide 2-17, 9-23, 16-30) showed a pIC50 (hNav1.7) of 7.32, a pIC50 (hNav1.5) of under 5.00 and a pIC50 (hNav1.3) of 6.70.
In the case of CC[C@H](C)[C@@H]1NC(=O)[C@@H]2CSSC[C@@H]3NC(=O)[C@H](C(C)C)NC(=O)[C@H](CC(C)C)NC(=O)[C@H](CC(N)=O)NC(=O)[C@@H]4CCCN4C(=O)[C@H](CCCNC(=N)N)NC(=O)[C@H](CSSC[C@H](NC(=O)[C@@H](N)CC(=O)O)C(=O)N[C@@H](CC(C)C)C(=O)NCC(=O)N[C@@H](C)C(=O)N[C@@H](CCSC)C(=O)N[C@@H](CCCNC(=N)N)C(=O)N[C@@H](CCCCN)C(=O)N2)NC(=O)[C@H](CSSC[C@@H](C(=O)N[C@@H](CCCCN)C(=O)N[C@@H](Cc2ccc(O)cc2)C(=O)N[C@H](C(=O)N[C@@H](Cc2ccccc2)C(N)=O)C(C)C)NC(=O)[C@H](Cc2c[nH]c4ccccc24)NC(=O)[C@H](CCCNC(=N)N)NC(=O)[C@H](Cc2c[nH]cn2)NC(=O)[C@H]([C@@H](C)O)NC(=O)[C@H](CCCNC(=N)N)NC(=O)[C@H](CO)NC3=O)NC(=O)[C@H](CCCCN)NC(=O)[C@H](CC(=O)O)NC(=O)[C@H](CC(N)=O)NC(=O)[C@H](CC(=O)O)NC(=O)[C@@H]2CCCN2C1=O [[Ala5;Arg28]GpTx-1(1-34)] (H-DCLGAMRKCIPDNDKCCRPNLVCSRTHRWCKYVF-NH2; disulfide 2-17, 9-23, 16-30), the pIC50 (hNav1.7) was 7.11, the pIC50 (hNav1.5) was under 5.00 and the pIC50 (hNav1.3) was 6.36.
